Reference: US11629171B2, “Beta-hairpin peptidomimetics” (POLYPHOR AG, priority 2017, dated 2023)
≈ marks a conversion by molar mass, not a printed value. Where a SMILES comes first, the peptide text is derived from it. Bridges are numbered along the chain shown (N, C = ends). Roman numbers before positions name the chains, in order. [ ]: non-standard residue; d: D form. The star is where a group is joined. Thr(ol) = C[C@@H](O)[C@H](N)CO; Tle = CC(C)(C)[C@H](N)C(=O)O; NMeV = CN[C@H](C(=O)O)C(C)C; Hiv = CC(C)[C@H](O)C(=O)O; dDab = NCC[C@@H](N)C(=O)O; hSer = N[C@@H](CCO)C(=O)O; Nle = CCCC[C@H](N)C(=O)O; Orn = NCCC[C@H](N)C(=O)O; Dab = NCC[C@H](N)C(=O)O; Abu = CC[C@H](N)C(=O)O; Dap = NC[C@H](N)C(=O)O; NHCH2CH2OH = OCCN*

Key:
Type in all cases: cell-based
[1] = tested on: human red blood cells (hRBC); assay: Hemolysis; settings: red cells of human, 1 h, 200
Summary of the method: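 Read-out is supernatant absorbance at 540 nm, normalised to full lysis by 2% Triton X-100 and zero lysis by PBS with 10% water. Peptides (200 μg/mL) were exposed to 20% v/v washed human erythrocytes at 37° C for 1 h under shaking.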

[2] = tested on: Enterobacter cloacae 848840; settings: 848840
Summary of the method: (§1)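 Cation-adjusted MH-II broth, 0.002% polysorbate 80, inoculum near 10^6 CFU/mL. MIC read visually after 18-20 h, 35° C; units μg/mL.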

[3] = tested on: Escherichia coli 926415; settings: 926415
Summary of the method: as §1

[4] = tested on: Klebsiella pneumoniae SSI #3010; settings: SSI #3010
Summary of the method: as §1

[5] = tested on: Escherichia coli ATCC 25922; settings: ATCC 25922
Summary of the method: as §1

[6] = tested on: Klebsiella pneumoniae 968733; settings: 968733
Summary of the method: as §1

[7] = tested on: Acinetobacter baumannii DSM 30008; settings: DSM 30008
Summary of the method: as §1

[8] = tested on: Pseudomonas aeruginosa ATCC 27853; settings: ATCC 27853
Summary of the method: as §1

[9] = tested on: Acinetobacter baumannii 872842; settings: 872842
Summary of the method: as §1

Row | Structure (SMILES) | Hemolysis at 200 μg/mL [1] [%] | MIC [2] [µg/mL] | MIC [3] [µg/mL] | MIC [4] [µg/mL] | MIC [5] [µg/mL] | MIC [6] [µg/mL] | MIC [7] [µg/mL] | MIC [8] [µg/mL] | MIC [9] [µg/mL] | Klebsiella pneumoniae SSI #3010 MIC [4] [µg/mL] | Escherichia coli ATCC 25922 MIC [5] [µg/mL] | Acinetobacter baumannii DSM 30008 MIC [7] [µg/mL] | Pseudomonas aeruginosa ATCC 27853 MIC [8] [µg/mL]
1 | CC(C)C[C@@H]1NC(=O)[C@@H](CC(C)C)NC(=O)[C@H](CCN)NC(=O)[C@@H](NC(=O)[C@H](CN)NC(=O)[C@@H](NC(=O)[C@H](CCN)NC(=O)CC[C@@H]2NC(=O)CNC(=O)[C@H](CCCN)NC(=O)[C@@H](NC(=O)[C@H](Cc3ccc(O)cc3)NC(=O)[C@@H](NC(=O)[C@@H](O)C(C)C)[C@@H](C)O)CSSC[C@@H](C(=O)N[C@H](C(=O)N[C@@H](C)C(=O)N[C@H](CO)[C@@H](C)O)C(C)(C)C)NC(=O)[C@H](Cc3c[nH]c4ccccc34)NC2=O)[C@@H](C)O)CCNC(=O)[C@H]([C@@H](C)O)NC(=O)[C@H](CCN)NC(=O)[C@H](CCN)NC1=O [Ex. 212] (I: H-[Hiv]TYC[Orn]GEWC[Tle]A[Thr(ol)] / II: [Dab]T[Dap][Dab][Dab][dL]L[Dab][Dab]T; disulfide I:4-I:9; amide I:7-II:N; lactam II:4-II:C) | 1 | 0.5 (≈ 0.214 µM) | 1 (≈ 0.427 µM) | 0.25 (≈ 0.107 µM) | 0.0625 (≈ 0.0267 µM) | 2 (≈ 0.854 µM) | 0.125 (≈ 0.0534 µM) | 0.25 (≈ 0.107 µM) | 0.5 (≈ 0.214 µM) | – | – | – | –
2 | CC(C)C[C@@H]1NC(=O)[C@@H](CC(C)C)NC(=O)[C@H](CCN)NC(=O)[C@@H](NC(=O)[C@H](CCN)NC(=O)[C@@H](NC(=O)[C@H](CCN)NC(=O)CC[C@@H]2NC(=O)[C@H](CCC(=O)O)NC(=O)[C@H](Cc3ccc(O)cc3)NC(=O)[C@@H](NC(=O)[C@@H](O)C(C)C)CSSC[C@@H](C(=O)N[C@H](CO)[C@@H](C)O)NC(=O)[C@H](C(C)(C)C)NC(=O)[C@H](CN)NC(=O)[C@H](Cc3c[nH]c4ccccc34)NC(=O)[C@H]([C@@H](C)O)NC(=O)[C@@H](CCN)NC2=O)[C@@H](C)O)CCNC(=O)[C@H]([C@@H](C)O)NC(=O)[C@H](CCN)NC(=O)[C@H](CCN)NC1=O [Ex. 91] (I: H-[Hiv]CYEE[dDab]TW[Dap][Tle]C[Thr(ol)] / II: [Dab]T[Dab][Dab][Dab][dL]L[Dab][Dab]T; disulfide I:2-I:11; amide I:5-II:N; lactam II:4-II:C) | <1 | 1 (≈ 0.412 µM) | 2 (≈ 0.823 µM) | 0.25 (≈ 0.103 µM) | 0.0625 (≈ 0.0257 µM) | 2 (≈ 0.823 µM) | 0.125 (≈ 0.0515 µM) | 0.25 (≈ 0.103 µM) | 0.5 (≈ 0.206 µM) | – | – | – | –
3 | CN[C@H](C(=O)N[C@H]1CSSC[C@@H](C(=O)N[C@@H](CO)C(N)=O)NC(=O)[C@H](C(C)C)NC(=O)[C@@H]2CSSC[C@H](NC(=O)[C@H](Cc3ccc(O)cc3)NC1=O)C(=O)N[C@@H](CCC(=O)N[C@@H](CCN)C(=O)N[C@H](C(=O)N[C@@H](CCN)C(=O)N[C@H]1CCNC(=O)[C@H]([C@@H](C)O)NC(=O)[C@H](CCN)NC(=O)[C@H](CCN)NC(=O)[C@H](CC(C)C)NC(=O)[C@@H](CC(C)C)NC(=O)[C@H](CCN)NC1=O)[C@@H](C)O)C(=O)N[C@H](CCN)C(=O)N[C@@H](CCO)C(=O)N[C@@H](Cc1c[nH]c3ccccc13)C(=O)N2)C(C)C [Ex. 177] (I: H-[NMeV]CYCE[dDab][hSer]WCVCS-NH2 / II: [Dab]T[Dab][Dab][Dab][dL]L[Dab][Dab]T; disulfide I:2-I:11, I:4-I:9; amide I:5-II:N; lactam II:4-II:C) | <1 | 1 (≈ 0.414 µM) | 0.25 (≈ 0.103 µM) | 0.25 (≈ 0.103 µM) | 0.0625 (≈ 0.0259 µM) | 0.5 (≈ 0.207 µM) | 0.0625 (≈ 0.0259 µM) | 0.125 (≈ 0.0517 µM) | 0.125 (≈ 0.0517 µM) | – | – | – | –
4 | CC(C)C[C@@H]1NC(=O)[C@@H](CC(C)C)NC(=O)[C@H](CCN)NC(=O)[C@@H](NC(=O)[C@H](CCN)NC(=O)[C@@H](NC(=O)[C@H](CCN)NC(=O)CC[C@@H]2NC(=O)[C@H](CCN)NC(=O)[C@H]([C@@H](C)O)NC(=O)[C@@H](NC(=O)[C@@H](O)C(C)C)CSSC[C@@H](C(=O)N[C@@H](Cc3ccc(O)cc3)C(=O)NCCO)NC(=O)[C@H](C(C)(C)C)NC(=O)[C@H](CO)NC(=O)[C@H](Cc3c[nH]c4ccccc34)NC(=O)[C@H](CCO)NC(=O)[C@@H](CCN)NC2=O)[C@@H](C)O)CCNC(=O)[C@H]([C@@H](C)O)NC(=O)[C@H](CCN)NC(=O)[C@H](CCN)NC1=O [Ex. 70] (I: H-[Hiv]CT[Dab]E[dDab][hSer]WS[Tle]CY-NHCH2CH2OH / II: [Dab]T[Dab][Dab][Dab][dL]L[Dab][Dab]T; disulfide I:2-I:11; amide I:5-II:N; lactam II:4-II:C) | <1 | 0.125 (≈ 0.0509 µM) | 0.5 (≈ 0.203 µM) | 0.125 (≈ 0.0509 µM) | 0.125 (≈ 0.0509 µM) | 0.25 (≈ 0.102 µM) | 0.0625 (≈ 0.0254 µM) | 0.125 (≈ 0.0509 µM) | 0.25 (≈ 0.102 µM) | – | – | – | –
5 | CCCC[C@H](NC(C)=O)C(=O)N[C@H]1CSSC[C@@H](C(=O)N[C@H](C(N)=O)[C@@H](C)O)NC(=O)[C@H](C(C)(C)C)NC(=O)[C@H](CO)NC(=O)[C@H](Cc2c[nH]c3ccccc23)NC(=O)[C@H](CO)NC(=O)[C@@H](CCN)NC(=O)[C@H](CCC(=O)N[C@@H](CCN)C(=O)N[C@H](C(=O)N[C@@H](CN)C(=O)N[C@H]2CCNC(=O)[C@H]([C@@H](C)O)NC(=O)[C@H](CCN)NC(=O)[C@H](CCN)NC(=O)[C@H](CC)NC(=O)[C@@H](CC(C)C)NC(=O)[C@H](CCN)NC2=O)[C@@H](C)O)NC(=O)[C@H](CCN)NC(=O)[C@H](Cc2ccc(O)cc2)NC1=O [Ex. 142] (I: Ac-[Nle]CY[Dab]E[dDab]SWS[Tle]CT-NH2 / II: [Dab]T[Dap][Dab][Dab][dL][Abu][Dab][Dab]T; disulfide I:2-I:11; amide I:5-II:N; lactam II:4-II:C) | <1 | 0.125 (≈ 0.0518 µM) | 0.03125 (≈ 0.013 µM) | 0.03125 (≈ 0.013 µM) | 0.0625 (≈ 0.0259 µM) | 0.0625 (≈ 0.0259 µM) | 0.03125 (≈ 0.013 µM) | 0.125 (≈ 0.0518 µM) | 0.03125 (≈ 0.013 µM) | – | – | – | –
6 | CC(=O)N[C@H](C(=O)N[C@H]1CSSC[C@@H](C(N)=O)NC(=O)[C@H](C(C)C)NC(=O)[C@H](CCO)NC(=O)[C@H](Cc2c[nH]c3ccccc23)NC(=O)[C@H](CCO)NC(=O)[C@@H](CCN)NC(=O)[C@H](CCC(=O)N[C@@H](CCN)C(=O)N[C@H](C(=O)N[C@@H](CCN)C(=O)N[C@H]2CCNC(=O)[C@H]([C@@H](C)O)NC(=O)[C@H](CCN)NC(=O)[C@H](CCN)NC(=O)[C@H](CC(C)C)NC(=O)[C@@H](CC(C)C)NC(=O)[C@H](CCN)NC2=O)[C@@H](C)O)NC(=O)[C@H](CCN)NC(=O)[C@H](Cc2ccc(O)cc2)NC1=O)C(C)C [Example 6] (I: Ac-VCY[Dab]E[dDab][hSer]W[hSer]VC-NH2 / II: [Dab]T[Dab][Dab][Dab][dL]L[Dab][Dab]T; disulfide I:2-I:11; amide I:5-II:N; lactam II:4-II:C) | 2 | 4 (≈ 1.7 µM) | 0.5 (≈ 0.212 µM) | 0.25 (≈ 0.106 µM) | 0.125 (≈ 0.0531 µM) | 0.5 (≈ 0.212 µM) | 0.125 (≈ 0.0531 µM) | 0.125 (≈ 0.0531 µM) | 4 (≈ 1.7 µM) | – | – | – | –
7 | CC(=O)N[C@H](C(=O)N[C@H]1CSSC[C@@H](C(=O)N[C@@H](CO)C(N)=O)NC(=O)[C@H](C(C)C)NC(=O)[C@H](Cc2c[nH]cn2)NC(=O)[C@H](Cc2c[nH]c3ccccc23)NC(=O)[C@H](CO)NC(=O)[C@@H](CCN)NC(=O)[C@H](CCC(=O)N[C@@H](CCN)C(=O)N[C@H](C(=O)N[C@@H](CN)C(=O)N[C@H]2CCNC(=O)[C@H]([C@@H](C)O)NC(=O)[C@H](CCN)NC(=O)[C@H](CCN)NC(=O)[C@H](CC(C)C)NC(=O)[C@@H](CC(C)C)NC(=O)[C@H](CCN)NC2=O)[C@@H](C)O)NC(=O)[C@H](CCN)NC(=O)[C@H](Cc2ccc(O)cc2)NC1=O)C(C)C [Ex. 329] (I: Ac-VCY[Dab]E[dDab]SWHVCS-NH2 / II: [Dab]T[Dap][Dab][Dab][dL]L[Dab][Dab]T; disulfide I:2-I:11; amide I:5-II:N; lactam II:4-II:C) | <1 | 0.125 (≈ 0.051 µM) | 0.125 (≈ 0.051 µM) | – | – | 0.25 (≈ 0.102 µM) | – | – | 0.125 (≈ 0.051 µM) | 0.125 | 0.0625 | 0.0625 | 0.125
8 | CC[C@H](C)[C@@H]1NC(=O)[C@H](CO)NC(=O)[C@H](Cc2c[nH]c3ccccc23)NC(=O)[C@H](CCN)NC(=O)[C@@H](CCN)NC(=O)[C@H](CCC(=O)N[C@@H](CCN)C(=O)N[C@H](C(=O)N[C@@H](CN)C(=O)N[C@H]2CCNC(=O)[C@H]([C@@H](C)O)NC(=O)[C@H](CCN)NC(=O)[C@H](CCN)NC(=O)[C@H](CC(C)C)NC(=O)[C@@H](CC(C)C)NC(=O)[C@H](CCN)NC2=O)[C@@H](C)O)NC(=O)[C@H](CO)NC(=O)[C@H](Cc2ccc(O)cc2)NC(=O)[C@@H](NC(=O)[C@@H](NC(C)=O)C(C)C)CSSC[C@@H](C(=O)N[C@@H](CO)C(N)=O)NC1=O [Ex. 253] (I: Ac-VCYSE[dDab][Dab]WSICS-NH2 / II: [Dab]T[Dap][Dab][Dab][dL]L[Dab][Dab]T; disulfide I:2-I:11; amide I:5-II:N; lactam II:4-II:C) | 2 | 0.125 (≈ 0.0518 µM) | 0.0625 (≈ 0.0259 µM) | 0.0625 (≈ 0.0259 µM) | 0.03125 (≈ 0.013 µM) | 0.0625 (≈ 0.0259 µM) | 0.03125 (≈ 0.013 µM) | 0.0625 (≈ 0.0259 µM) | 0.03125 (≈ 0.013 µM) | – | – | – | –
